According to article PMC10238656 (Cancer discovery, 2023):
Several values for one entry are separate records, joined by “and”; a condition that tells them apart may be missing. Equal values may be shown once. Read-outs that look alike come from different tables or passages of the source.

How the values were obtained:
[1] = molecular target: full-length recombinant KDM5D (Homo sapiens, UniProt Q9BY66)
[2] = molecular target: full-length recombinant KDM5C (Homo sapiens, UniProt P41229); assay: KDM5C enzyme kinetic assay; format: biochemical
full-length recombinant KDM5C, sequence (P41229 whole entry): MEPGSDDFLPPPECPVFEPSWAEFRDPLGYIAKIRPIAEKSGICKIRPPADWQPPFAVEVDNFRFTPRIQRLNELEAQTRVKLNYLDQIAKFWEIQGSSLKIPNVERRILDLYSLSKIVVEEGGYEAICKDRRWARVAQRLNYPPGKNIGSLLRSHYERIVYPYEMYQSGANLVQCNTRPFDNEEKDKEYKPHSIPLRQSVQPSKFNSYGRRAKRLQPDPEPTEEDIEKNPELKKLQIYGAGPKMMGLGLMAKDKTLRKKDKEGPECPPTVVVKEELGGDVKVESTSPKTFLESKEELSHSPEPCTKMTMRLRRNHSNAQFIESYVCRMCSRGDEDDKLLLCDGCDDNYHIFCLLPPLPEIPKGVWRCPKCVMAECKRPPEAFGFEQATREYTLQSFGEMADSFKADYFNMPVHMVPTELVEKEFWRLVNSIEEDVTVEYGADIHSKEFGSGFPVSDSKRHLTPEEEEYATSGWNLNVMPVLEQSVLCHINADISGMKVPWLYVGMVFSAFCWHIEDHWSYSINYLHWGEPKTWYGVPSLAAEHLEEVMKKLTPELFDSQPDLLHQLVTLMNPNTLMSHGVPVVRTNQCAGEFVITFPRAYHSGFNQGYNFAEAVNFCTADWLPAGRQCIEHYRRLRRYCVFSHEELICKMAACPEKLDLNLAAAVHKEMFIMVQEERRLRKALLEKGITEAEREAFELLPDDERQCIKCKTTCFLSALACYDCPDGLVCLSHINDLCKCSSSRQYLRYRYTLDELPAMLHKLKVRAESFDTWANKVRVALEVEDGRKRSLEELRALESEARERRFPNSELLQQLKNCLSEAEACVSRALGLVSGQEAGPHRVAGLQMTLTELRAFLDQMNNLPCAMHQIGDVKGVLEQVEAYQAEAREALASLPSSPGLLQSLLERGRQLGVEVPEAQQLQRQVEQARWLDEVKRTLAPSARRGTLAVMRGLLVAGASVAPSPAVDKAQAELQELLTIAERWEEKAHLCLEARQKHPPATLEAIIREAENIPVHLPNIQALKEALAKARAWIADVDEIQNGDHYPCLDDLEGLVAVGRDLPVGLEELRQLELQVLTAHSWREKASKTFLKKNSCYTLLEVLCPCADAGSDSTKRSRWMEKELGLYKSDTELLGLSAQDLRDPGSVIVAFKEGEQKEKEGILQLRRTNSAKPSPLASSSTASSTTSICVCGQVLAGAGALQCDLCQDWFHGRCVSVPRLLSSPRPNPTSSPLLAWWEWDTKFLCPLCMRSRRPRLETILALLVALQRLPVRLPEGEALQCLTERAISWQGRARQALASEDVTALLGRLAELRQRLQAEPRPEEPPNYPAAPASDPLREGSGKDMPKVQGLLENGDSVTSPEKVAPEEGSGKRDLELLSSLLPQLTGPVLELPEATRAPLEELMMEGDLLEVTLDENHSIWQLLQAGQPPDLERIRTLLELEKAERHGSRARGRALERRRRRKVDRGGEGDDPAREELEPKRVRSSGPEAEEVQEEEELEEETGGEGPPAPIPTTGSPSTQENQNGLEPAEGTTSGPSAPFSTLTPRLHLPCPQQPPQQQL

[3] = molecular target: full-length recombinant KDM5A (Homo sapiens, UniProt P29375); assay: KDM5A enzyme kinetic assay; format: biochemical
full-length recombinant KDM5A, sequence (P29375 whole entry): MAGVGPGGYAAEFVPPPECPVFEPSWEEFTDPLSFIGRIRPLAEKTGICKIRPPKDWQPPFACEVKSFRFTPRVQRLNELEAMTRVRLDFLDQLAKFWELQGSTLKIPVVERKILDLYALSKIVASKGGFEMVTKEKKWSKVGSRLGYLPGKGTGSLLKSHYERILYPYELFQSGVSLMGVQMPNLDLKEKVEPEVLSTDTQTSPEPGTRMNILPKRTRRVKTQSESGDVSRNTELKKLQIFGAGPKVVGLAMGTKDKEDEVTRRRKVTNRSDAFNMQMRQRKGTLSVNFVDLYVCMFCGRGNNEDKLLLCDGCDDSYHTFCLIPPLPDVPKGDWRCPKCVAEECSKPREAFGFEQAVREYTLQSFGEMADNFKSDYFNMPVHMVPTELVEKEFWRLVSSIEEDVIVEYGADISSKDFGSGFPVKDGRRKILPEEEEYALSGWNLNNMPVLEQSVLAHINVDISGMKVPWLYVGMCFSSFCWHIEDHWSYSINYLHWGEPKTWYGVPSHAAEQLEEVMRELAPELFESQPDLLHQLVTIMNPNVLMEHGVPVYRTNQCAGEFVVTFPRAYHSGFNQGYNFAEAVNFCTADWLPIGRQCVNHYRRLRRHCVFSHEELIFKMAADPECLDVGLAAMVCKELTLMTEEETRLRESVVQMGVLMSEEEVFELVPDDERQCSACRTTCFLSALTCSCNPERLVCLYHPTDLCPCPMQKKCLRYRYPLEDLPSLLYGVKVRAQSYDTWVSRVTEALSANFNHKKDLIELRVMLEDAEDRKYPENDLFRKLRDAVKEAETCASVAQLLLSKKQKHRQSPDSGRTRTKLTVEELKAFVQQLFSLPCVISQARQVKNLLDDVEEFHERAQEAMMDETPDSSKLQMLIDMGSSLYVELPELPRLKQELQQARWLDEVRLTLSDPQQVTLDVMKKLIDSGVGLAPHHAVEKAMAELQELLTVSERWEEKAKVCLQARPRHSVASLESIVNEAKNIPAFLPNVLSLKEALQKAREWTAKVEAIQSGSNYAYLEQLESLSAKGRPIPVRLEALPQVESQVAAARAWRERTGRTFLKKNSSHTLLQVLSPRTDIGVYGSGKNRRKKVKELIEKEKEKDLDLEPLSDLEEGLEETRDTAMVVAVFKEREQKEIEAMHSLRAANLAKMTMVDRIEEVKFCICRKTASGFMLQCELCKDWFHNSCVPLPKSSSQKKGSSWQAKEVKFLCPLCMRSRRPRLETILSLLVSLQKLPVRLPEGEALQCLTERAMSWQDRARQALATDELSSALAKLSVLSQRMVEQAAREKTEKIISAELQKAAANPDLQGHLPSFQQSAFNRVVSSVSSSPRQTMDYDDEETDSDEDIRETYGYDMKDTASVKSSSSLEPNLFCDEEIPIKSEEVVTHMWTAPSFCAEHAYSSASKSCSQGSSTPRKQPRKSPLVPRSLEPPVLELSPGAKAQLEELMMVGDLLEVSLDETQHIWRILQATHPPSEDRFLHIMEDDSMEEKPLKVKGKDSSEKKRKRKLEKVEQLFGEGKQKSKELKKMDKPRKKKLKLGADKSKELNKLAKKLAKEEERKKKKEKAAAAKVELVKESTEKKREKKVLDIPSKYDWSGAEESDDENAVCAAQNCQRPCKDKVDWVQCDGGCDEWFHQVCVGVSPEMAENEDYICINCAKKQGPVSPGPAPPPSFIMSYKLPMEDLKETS

[4] = tested on: TET2; conditions: cited from earlier work
[5] = tested on: KDM5B; conditions: cited from earlier work
[6] = molecular target: KDM5A^F68L (Homo sapiens, UniProt P29375, F68L); format: biochemical
KDM5A^F68L, sequence (P29375 whole entry F68L): as the sequence (P29375 whole entry) above, with F68L counted along it

[7] = molecular target: KDM5A^R429I (Homo sapiens, UniProt P29375, R429I); format: biochemical
KDM5A^R429I, sequence (P29375 whole entry R429I): as the sequence (P29375 whole entry) above, with R429I counted along it

[8] = tested on: global 5hmC levels in TF-1 cells; assay: Total 5hmC content by LC-MS; format: cell-based, human; conditions: 21 days in the presence of KDM5c70, day 0 of cytokine withdrawal
[9] = tested on: global H3K4 trimethylation in TF-1 cells; assay: Immunoblot analysis of global trimethyl-H3K4; format: cell-based, human; conditions: 50 nM KDM5c70, 21 days, vs DMSO-treated TF-1 cells
[10] = tested on: TF-1 cells; assay: TF-1 cytokine-withdrawal assay; format: cell-based, human; conditions: parental TF-1 cells passaged 21 days in the presence of KDM5c70
[11] = tested on: trimethyl-H3K4 at sites differentially marked in TF1-IDH1^R132H cells, TF-1 cells; assay: Trimethyl-H3K4 ChIP-seq; format: cell-based, human; conditions: KDM5c70-treated TF-1 cells vs DMSO
[12] = tested on: IHA cells; assay: Soft agar colony-forming assay; format: cell-based, human; conditions: 50 nM KDM5c70, IHA cells passaged 7 times in the presence of KDM5c70
[13] = tested on: TF1-IDH1^R132H cells; assay: Cytokine-withdrawal assay of mutant IDH-transformed TF-1 cells; format: cell-based, human
[14] = tested on: TF1-shTET2 cells; assay: Cytokine-withdrawal assay of TET2-knockdown TF-1 cells; format: cell-based, human; conditions: pre-treatment for two weeks prior to cytokine withdrawal
[15] = tested on: control TF-1 cells; assay: Proliferation under cytokine-rich conditions; format: cell-based, human; conditions: doses up to 100 nM, cytokine-rich media
[16] = tested on: TF1-IDH1^R132H cells; assay: Proliferation under cytokine-rich conditions; format: cell-based, human; conditions: doses up to 100 nM, cytokine-rich media
[17] = read-out: 2OG Km, mean ± SD of 3 to 7 assays, 50 mM Tris-HCl pH 7.5, 37 °C
[18] = read-out: (R)-2HG IC50, fourfold 2OG concentration relative to 2OG Km
[19] = read-out: (S)-2HG IC50, fourfold 2OG concentration relative to 2OG Km

full-length recombinant KDM5D, sequence (Q9BY66 whole entry): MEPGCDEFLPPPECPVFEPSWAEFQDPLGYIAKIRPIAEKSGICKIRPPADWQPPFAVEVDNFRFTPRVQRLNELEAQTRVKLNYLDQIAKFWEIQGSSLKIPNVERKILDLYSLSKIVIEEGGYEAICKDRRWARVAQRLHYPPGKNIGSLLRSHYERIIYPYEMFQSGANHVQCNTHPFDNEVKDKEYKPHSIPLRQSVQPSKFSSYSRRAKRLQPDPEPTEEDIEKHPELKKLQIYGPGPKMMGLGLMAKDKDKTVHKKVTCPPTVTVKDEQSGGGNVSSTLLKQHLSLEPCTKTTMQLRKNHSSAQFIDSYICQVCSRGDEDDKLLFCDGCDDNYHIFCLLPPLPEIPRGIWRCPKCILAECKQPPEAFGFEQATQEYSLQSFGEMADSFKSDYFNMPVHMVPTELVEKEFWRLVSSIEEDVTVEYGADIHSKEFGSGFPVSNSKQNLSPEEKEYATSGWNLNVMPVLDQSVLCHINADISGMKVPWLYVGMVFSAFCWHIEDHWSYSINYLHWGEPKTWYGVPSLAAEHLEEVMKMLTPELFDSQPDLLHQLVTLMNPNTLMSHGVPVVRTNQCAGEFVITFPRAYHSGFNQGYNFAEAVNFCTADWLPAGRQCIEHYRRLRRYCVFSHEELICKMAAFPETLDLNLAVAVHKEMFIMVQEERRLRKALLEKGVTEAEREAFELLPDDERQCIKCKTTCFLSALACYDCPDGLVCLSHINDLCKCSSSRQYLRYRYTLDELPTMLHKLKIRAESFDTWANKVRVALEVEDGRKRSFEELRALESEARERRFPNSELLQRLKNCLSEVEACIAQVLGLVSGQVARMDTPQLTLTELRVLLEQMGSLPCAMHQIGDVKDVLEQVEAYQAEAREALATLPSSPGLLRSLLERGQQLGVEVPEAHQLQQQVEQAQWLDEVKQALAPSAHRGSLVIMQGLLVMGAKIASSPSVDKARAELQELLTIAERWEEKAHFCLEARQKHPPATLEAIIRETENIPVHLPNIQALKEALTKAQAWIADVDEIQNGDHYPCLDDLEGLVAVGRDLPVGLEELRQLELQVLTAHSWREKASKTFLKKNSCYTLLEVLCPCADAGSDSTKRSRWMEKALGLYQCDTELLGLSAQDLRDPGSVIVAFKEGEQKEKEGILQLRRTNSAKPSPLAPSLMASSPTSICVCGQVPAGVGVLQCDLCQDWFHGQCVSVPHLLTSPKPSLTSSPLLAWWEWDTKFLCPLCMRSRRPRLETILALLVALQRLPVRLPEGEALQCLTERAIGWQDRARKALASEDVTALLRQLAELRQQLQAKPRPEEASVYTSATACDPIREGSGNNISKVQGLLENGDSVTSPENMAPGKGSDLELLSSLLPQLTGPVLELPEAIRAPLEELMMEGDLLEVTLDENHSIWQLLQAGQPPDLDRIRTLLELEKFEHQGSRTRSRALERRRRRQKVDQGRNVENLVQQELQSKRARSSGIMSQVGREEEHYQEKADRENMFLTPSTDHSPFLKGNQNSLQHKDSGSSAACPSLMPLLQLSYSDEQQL

## O=C(O)CCC(=O)C(=O)O [2OG, 2-oxoglutarate]
[1]; [17]
  Km: 4.3 ± 1.5 µM
[2]; [17]
  Km: 2.7 ± 0.4 µM
[3]; read-out: 2OG Km, mean ± SD of 3 to 7 assays, 50 mM MES pH 6.5, 37 °C
  Km: 4.5 ± 0.3 µM
[4]; read-out: 2OG Km
  Km: 55 ± 20 µM
[5]; read-out: 2OG Km
  Km: 10 ± 2 µM

## O=C(O)CC[C@@H](O)C(=O)O [(R)-2HG, (R)-2-hydroxyglutarate]
[1]; [18]
  IC50: 800 ± 190 µM
[2]; [18]
  IC50: 670 ± 100 µM
[3]; [18]
  IC50: 930 ± 200 µM
[4]; read-out: (R)-2HG IC50
  IC50: ~5000 µM and 5000 µM
[5]; read-out: (R)-2HG IC50
  IC50: […]
[6]
  sensitivity to inhibition by (R)-2HG compared with wild-type KDM5A: similarly sensitive to inhibition by (R)-2HG
[7]
  sensitivity to inhibition by (R)-2HG compared with wild-type KDM5A: similarly sensitive to inhibition by (R)-2HG

## O=C(O)CC[C@H](O)C(=O)O [(S)-2HG]
[1]
  inhibition of KDM5D (in words): potently inhibited
[1]; [19]
  IC50: 310 ± 30 µM
[2]
  inhibition of KDM5C (in words): potently inhibited
[2]; [19]
  IC50: 200 ± 10 µM
[3]
  inhibition of KDM5A (in words): potently inhibited
[3]; [19]
  IC50: 150 ± 100 µM
[4]; read-out: (S)-2HG IC50
  IC50: 1600 µM

## CCOC(=O)c1ccnc(CNCC(=O)N(CC)CCN(C)C)c1 [KDM5c70]
[8]
  effect on global 5hmC levels: neither KDM5A/C/D triple knockout nor treatment with KDM5c70 had a significant effect
[9]
  effect on global trimethyl-H3K4 levels (western blot): increased global levels of trimethyl-H3K4
[10]
  induction of TF-1 cytokine independence: sufficient to induce TF-1 cytokine independence
[11]
  trimethyl-H3K4 ChIP-seq signal at sites enriched in TF1-IDH1^R132H cells: trimethyl-H3K4-rich regions were enriched
[12]
  soft agar colony formation: sufficient to induce soft agar colony formation

## CC(C)N(C(=O)c1cc(F)ccc1Oc1cncnc1N1CC2(CCN(CC3CCC(NS(C)(=O)=O)CC3)CC2)C1)C(C)C (centres unmarked) [VTP50469]
[13]; pre-treatment for two weeks prior to cytokine withdrawal
  effect on cytokine independence: did inhibit TF1-IDH1^R132H cytokine independence in a dose-dependent manner
[13]; treatment started on day 0 of cytokine withdrawal
  effect on cytokine independence: no effect
[14]
  effect on cytokine independent proliferation: inhibited the cytokine independent proliferation of TF1-shTET2 cells to a similar extent as TF1-IDH1^R132H cells
[15]
  effect on cytokine-dependent proliferation: no effect
[16]
  effect on cytokine-dependent proliferation: no effect
